Experimental data taken from patent US20170234881A1, “METHODS OF DIAGNOSING AND TREATING CANCER” (INSERM ( INSTITUT NATIONAL DE LA SANTÉ ET DE LA RECHERCHE …, priority 2014, published 2017).

Tests used:
TS/A cells = experiment: Cell proliferation assay (BrDU incorporation), TS/A; format: cell-based, mouse; details: TS/A cells treated 24 h, concentration-dependent, level reached
Description: FIG. 2. OCDO is a tumor promoter in vitro and in vivo and its inhibition contributes to the anti-tumor effects of Tam and DDA. (A, B) Histograms representing the effect of OCDO or 17β-estrogen (E2) on MCF7 (A) and TS/A (B) cell proliferation after 24 h treatment using a colorimetric immunoassay measuring BrDU incorporation in DNA (C, D) Histogram representing the effect of OCDO on MCF7 (C) and TS/A (D) cell invasion. Data are the mean of three separate experiments (±[…]) Mice were implanted s.c. with MCF7 (E) or TS/A (F) cells and animals (8 per group) were treated s.c. every day starting on the day of implantation with either the solvent vehicle or OCDO (16 μg/kg for MCF7 or 50 μg/kg for TS/A). Animals were monitored for tumour growth twice a week. The data are representative of three independent experiments. The mean tumor volume±s.e.m is shown, *P<0.05, **P<0.01, ***P<0.001 (analysis of variance (ANOVA), Dunnett's post test). […] (I, J, K). Murine […], or human MDA-MB231 (J) or MDA-MB468 (K) cells implanted s.c. into mice (8 per group) and animals were treated s.c. with either the solvent vehicle or OCDO (16 μg/kg for MDA-MB-231 and MDA-MB-468 or 50 μg/kg for E0771). […] At the end of this time, cells were incubated with BrDU for an additional 8 h and then evaluated for proliferation using the ELISA kit, Roche Diagnostic, as indicated by the manufacturer.

E0771 cells = experiment: Growth of E0771 tumors implanted s.c. into mice; format: in vivo; details: mouse E0771 tumors, OCDO 50 μg/kg s.c.
Description: (§1) FIG. 2. OCDO is a tumor promoter in vitro and in vivo and its inhibition contributes to the anti-tumor effects of Tam and DDA. (A, B) Histograms representing the effect of OCDO or 17β-estrogen (E2) on MCF7 (A) and TS/A (B) cell proliferation after 24 h treatment using a colorimetric immunoassay measuring BrDU incorporation in DNA (C, D) Histogram representing the effect of OCDO on MCF7 (C) and TS/A (D) cell invasion. Data are the mean of three separate experiments (±s.e.m), *P<0.05, **P<0.01, ***P<0.001 (Student's t-test). (E, F) Mice were implanted s.c. with MCF7 (E) or TS/A (F) cells and animals (8 per group) were treated s.c. every day starting on the day of implantation with either the solvent vehicle or OCDO (16 μg/kg for MCF7 or 50 μg/kg for TS/A). Animals were monitored for tumour growth twice a week. […] (G) Mean (±s.e.m) of Ki67 positive cell number determined from IHC staining of MCF7 tumor sections from (E), n=8, *P<0.05 (Student's t-test) using HistoQuant, Pannoramic Viewer (3DHistech). […]
(§2) Exponentially growing MCF7, ShMCF7, E0771, MDA-MB231, MDA-MB468 and TS/A cells were collected, washed twice in PBS and resuspended in PBS. […] Animals were examined daily, and body weights were measured twice per week. In all the experiments, the tumor volume was determined by direct measurement with a caliper and was calculated using the formula (width^2×length)/2. […]

MDA-MB231 cells = experiment: Growth of MDA-MB231 tumors implanted s.c. into mice; format: in vivo; details: human MDA-MB231 tumors, OCDO 16 μg/kg s.c.
Description: as §1, §2

For CC(C)CCC[C@@H](C)[C@H]1CC[C@H]2[C@@H]3CC(=O)[C@@]4(O)C[C@@H](O)CC[C@]4(C)[C@H]3CC[C@]12C [OCDO, 6-oxo-cholestan-3β,5α-diol], the “growth rate (cell proliferation) relative to the control” value (TS/A cells) was 1.7 fold, the tumor growth (E0771 cells) was “stimulates the growth” and the tumor growth (MDA-MB231 cells) was “stimulates the growth”.
